Results on 2 molecules are retold here after US11400080B2, “Use of sirolimus to treat exudative age-related macular degeneration with persistent edema” (Santen Pharmaceutical Co., Ltd., priority 2016, dated 2022).

For experiment [1], the system named is exudative AMD with persistent intraretinal or subretinal edema despite previous intravitreal anti-VEGF treatment. Put plainly: Example 1: randomized, subject-masked trial of intravitreal sirolimus versus anti-VEGF (OCT CST and BCVA). The format is in vivo, human. Particulars: baseline to months 3-6, subjects who completed the study through month 6, FIG. 2 and FIG. 4. From the text:
This study was a single-center, randomized, subject-masked trial over the course of six months with eight scheduled visits. Study Population. Thirty human patients, who were 50 years of age or older at baseline were recruited according to the following inclusion and exclusion criteria. If both eyes met all of the inclusion/exclusion criteria the eye with the worse BCVA at baseline was selected as the study eye. If both eyes met all of the inclusion/exclusion criteria and BCVA values were identical for both eyes, the right eye was selected as the study eye. Study Treatment (Group 1). […] Sham intravitreal injection given at month 1, month 3 and month 5. […] Intravitreal injection of anti-VEGF per patient/investigator choice (pegaptanib, aflibercept, bevacizumab or ranibizumab) given at baseline and thereafter monthly per clinical criteria. Sham intravitreal injections given when retreatment criterion was not met at month 1 or any later visit. […] Both intraocular pressure and the perfusion of the optic nerve head were monitored and managed appropriately after injection. […] The primary efficacy endpoint includes change in edema from baseline to month 6 as measured by CST on Heidelberg OCT. change in BCVA from baseline to month 6; Continuous variables will be summarized with means and standard deviations and medians with min and max values and categorical variables with frequencies and percentages. […]

Experiment [2] relates to persistent edema due to neovascular AMD. As to the kind of experiment: Example 2: randomized, subject-masked trial of intravitreal sirolimus plus anti-VEGF (aflibercept) versus anti-VEGF alone (OCT CST and BCVA). Format: in vivo, human. The source says: This study was a single-center, randomized, subject-masked trial over the course of […] with eleven scheduled visits. Study Population. Twenty human patients, who were 50 years of age or older at baseline were recruited according to the following inclusion and exclusion criteria. If both eyes met all of the inclusion/exclusion criteria the eye with the best potential for visual improvement (worse BCVA) at baseline was selected as the study eye. If both eyes met all of the inclusion/exclusion criteria and BCVA values were identical for both eyes, the right eye was selected as the study eye. Study Treatment (Group 1). […] Intravitreal injections of EYL (aflibercept) given at weeks 1, 8, 16, 24 and 32. […] Comparator Treatment (Group 2). Intravitreal injection of EYL (aflibercept) given at baseline and weeks 8, 16, 24 and 32. […] Both intraocular pressure and the perfusion of the optic nerve head were monitored and managed appropriately after injection. […] Retreatment Criteria: Subjects in both groups received retreatment (or sham) at each scheduled visit as long as continued subretinal edema, intraretinal edema or active choroidal neovascularization was present. change in edema from baseline to week 36 as measured by CST on Heidelberg OCT. change in BCVA from baseline to week 36; and number of injections required to control choroidal neovascularization based on volume of subretinal fluid.

Take `CO[C@H]1C[C@@H]2CC[C@@H](C)[C@@](O)(O2)C(=O)C(=O)N2CCCC[C@H]2C(=O)O[C@H]([C@H](C)C[C@@H]2CC[C@@H](O)[C@H](OC)C2)CC(=O)[C@H](C)/C=C(\C)[C@@H](O)[C@@H](OC)C(=O)[C@H](C)C[C@H](C)/C=C/C=C/C=C/1C` [sirolimus]: the “average change in edema from baseline (central subfield thickness, CST, by OCT)” value in experiment [1] is −30 to −40. The “subjects in whom the need for anti-VEGF treatment to control edema was reduced” value in experiment [2] (combination group, ten patients, EYL injections deferred (sham)) is recorded as 40%.
For the molecule aflibercept [EYL], the “improvement in visual acuity (BCVA)” value in experiment [2] (change from baseline, FIG. 5) is “+0.8 letters”.
